Results published in publication PMC10744248, “Unsymmetrical Pd(II) Pincer Complexes with Benzothiazole and Thiocarbamate Flanking Units: Expedient Solvent-Free Synthesis and Anticancer Potential” (International Journal of Molecular Sciences, 2023).

Assays:
[1] = tested on: human colorectal carcinoma (HCT116) cells; assay: MTT cytotoxicity assay, HCT116; assay type: cell-based; settings: for IC50: HCT116, MTT assay
Procedure: (§1) To estimate the anticancer potential of palladacycles 2a,b, their ability to inhibit cell growth in different solid and blood cancer cell lines was determined using the conventional MTT assay.
(§2) The cytotoxicities of ligand 1b and Pd(II) pincer complexes 2a,b, V, and VI (X = O) were studied on human colorectal carcinoma (HCT116), breast cancer (MCF7), prostate adenocarcinoma (PC3), chronic myelogenous leukemia (K562 and K562/iS9), multiple plasmacytoma (AMO1), and acute lymphoblastic leukemia (H9) cell lines, as well as human embryonic kidney (HEK293) and mammary epithelial (HBL100 and HBL100/Dox) cells used as representatives of non-cancerous cell lines. All the cell lines were obtained from American Type Culture Collection (ATCC). The tested compounds were initially dissolved in DMSO. […] The detailed procedure is described in Ref. [52].

[2] = tested on: breast cancer (MCF7) cells; assay: MTT cytotoxicity assay, MCF7; assay type: cell-based, human; settings: for IC50: MCF7, MTT assay
Procedure: as §1, §2

[3] = tested on: acute lymphoblastic leukemia (H9) cells; assay: MTT cytotoxicity assay, H9; assay type: cell-based, human
Procedure: as §1, §2

[4] = tested on: multiple plasmacytoma (AMO1) cells; assay: MTT cytotoxicity assay, AMO1; assay type: cell-based, human
Procedure: as §1, §2

[5] = tested on: human embryonic kidney (HEK293) cells; assay: MTT cytotoxicity assay, HEK293; assay type: cell-based; settings: HEK293 (non-cancerous)
Procedure: as §1, §2

[6] = tested on: mammary epithelial HBL100 cells; assay: MTT cytotoxicity assay, HBL100; assay type: cell-based, human; settings: HBL100 (non-cancerous)
Procedure: as §1, §2

[7] = tested on: prostate adenocarcinoma (PC3) cells; assay: MTT cytotoxicity assay, PC3; assay type: cell-based, human; settings: for IC50: PC3, MTT assay
Procedure: as §1, §2

[8] = tested on: doxorubicin-resistant chronic myelogenous leukemia K562/iS9 cells; assay: MTT cytotoxicity assay, K562/iS9; assay type: cell-based, human
Procedure: (§3) To estimate the anticancer potential of palladacycles 2a,b, their ability to inhibit cell growth in different solid and blood cancer cell lines was determined using the conventional MTT assay. […] This underscores the importance of a more labile pincer-type coordination that can be achieved not only by the introduction of two different donor centers (like hard nitrogen and soft sulfur atoms) but also via elongating one of the side arms (like in the considered thiophosphoryloxy and thiocarbamate derivatives). In turn, the stability of a pincer-type framework of complex 2b, used as a representative example, in neat DMSO, DMSO–water, and DMSO–PBS mixtures for 2 days was confirmed by the results of UV-vis spectroscopic studies (for the corresponding spectra, see Figures S33–S35 in the SI).
(§4) However, in certain cases, the selectivity indices approached and even exceeded 10.0. Of particular note is the same level of cytotoxicity of both benzothiazole–thiocarbamate complexes against parental cell lines and doxorubicin-resistant clones of non-cancerous mammary epithelial cells (HBL100 and HBL100/Dox) and, more importantly, chronic myelogenous leukemia cells K562 and K562/iS9. The additional investigations by flow cytometry performed on K562 and K562/iS9 cancer cells treated with complex 2a using the Annexin V-FITC/PI double staining assay confirmed its ability to […] (Figure 4), increasing the populations of early (lower right quadrants) and late (upper right quadrants) apoptotic cells in both parental and resistant lines. These findings argue for the possibility of creating new promising anticancer agents based on the related cyclopalladated derivatives that could potentially evade drug resistance of cancer cells.
(§5) The cytotoxicities of ligand 1b and Pd(II) pincer complexes 2a,b, V, and VI (X = O) were studied on human colorectal carcinoma (HCT116), breast cancer (MCF7), prostate adenocarcinoma (PC3), chronic myelogenous leukemia (K562 and K562/iS9), multiple plasmacytoma (AMO1), and acute lymphoblastic leukemia (H9) cell lines, as well as human embryonic kidney (HEK293) and mammary epithelial (HBL100 and HBL100/Dox) cells used as representatives of non-cancerous cell lines. All the cell lines were obtained from American Type Culture Collection (ATCC). The tested compounds were initially dissolved in DMSO. Cisplatin (in the initial form of an infusion concentrate in natural saline solution) from a commercial source was used as a positive control. The detailed procedure is described in Ref. [52].

[9] = Stability by UV-vis spectroscopy; assay type: physicochemical
Procedure: as §3
The UV–vis spectra were registered on a Cary50 spectrometer in quartz cells with 10 mm path length (Figures S33–S35 in the SI).
Figure S33. […]
DMSO–PBS (1:1) registered immediately after dissolution (a) , in one ( b) or two (c) days Note: a reduction in the absorbance in the case of the DMSO–PBS (1:1) solution in time is connected […]
To confirm its identity, the resulting precipitate was collected by filtration, dried in air, dissolved in neat DMSO, and immediately analyzed by UV-Vis spectroscopy (see Fig. S35). […]

[10] = tested on: doxorubicin-resistant mammary epithelial HBL100/Dox cells; assay: MTT cytotoxicity assay, HBL100/Dox; assay type: cell-based, human; settings: HBL100/dox (non-cancerous, doxorubicin-resistant)
Procedure: as §3, §4, §5

[11] = tested on: chronic myelogenous leukemia K562 cells; assay: MTT cytotoxicity assay, K562; assay type: cell-based, human
Procedure: as §1, §2

human cell lines = assay: MTT cytotoxicity assay, cell line panel (line not specified); assay type: cell-based; settings: at a concentration as high as 60 μM
Procedure: as §3
However, in certain cases, the selectivity indices approached and even exceeded 10.0. Of particular note is the same level of cytotoxicity of both benzothiazole–thiocarbamate complexes against parental cell lines and doxorubicin-resistant clones of non-cancerous mammary epithelial cells (HBL100 and HBL100/Dox) and, more importantly, chronic myelogenous leukemia cells K562 and K562/iS9. […]

Compound: CCN(CC)C1=[S+][Pd-2]2([Cl])[c]3c(cccc3-c3sc4ccccc4[n+]32)O1 (centres unmarked) [2b]
- IC50 [1]: 12.7 ± 1.5 µM
- IC50 [2]: 13.5 ± 2.1 µM
- IC50 [3]: 2.1 ± 0.9 µM
- IC50 [4]: 4.4 ± 0.8 µM
- IC50 [5]: 9.5 ± 0.7 µM
- IC50 [6]: 10.2 ± 3.3 µM
- IC50 [7]: 8.5 ± 2.5 µM
- IC50 [8]: 2.6 ± 0.8 µM
- behaviour in DMSO–PBS (1:1) solution in time (reduction in absorbance) ([9]; DMSO–PBS (1:1), up to 2 days): gradual precipitation
- stability of the pincer-type framework ([9]; neat DMSO, DMSO–water and DMSO–PBS mixtures (1:1), 2 days): confirmed
- IC50 [10]: 16.3 ± 3.8 µM
- IC50 [11]: 2.9 ± 0.4 µM

Compound: CCN(CC)C(=S)Oc1cccc(-c2nc3ccccc3s2)c1 [1b, O-[3-(Benzo[d]thiazol-2-yl)phenyl] Diethylthiocarbamate]
- cytotoxicity (human cell lines): nontoxic

Compound: N.N.[Cl][Pt][Cl] [Cisplatin, reference compound]
- IC50 [8]: 16 ± 2 µM
- IC50 [10]: 23.6 ± 3.6 µM

Compound: CN(C)C1=[S+][Pd-2]2([Cl])[c]3c(cccc3-c3sc4ccccc4[n+]32)O1 (centres unmarked) [2a]
- IC50 [1]: 1.3 ± 0.2 µM
- IC50 [2]: 3.3 ± 0.4 µM
- IC50 [3]: 1.3 ± 0.1 µM
- IC50 [4]: 0.3 ± 0.1 µM
- IC50 [5]: 2.5 ± 0.2 µM
- IC50 [6]: 3.2 ± 0.5 µM
- IC50 [7]: 1.1 ± 0.3 µM
- IC50 [8]: 0.9 ± 0.1 µM
- IC50 [10]: 4.4 ± 0.8 µM
- IC50 [11]: 0.9 ± 0.2 µM

Compound: [Cl][Pd-2]12[S+]=P(c3ccccc3)(c3ccccc3)c3cccc([c]31)-c1sc3ccccc3[n+]12 (centres unmarked) [V, reference compound]
- percentage of living cells ([1]; HCT116, at a concentration of 80 μM): over 60%
- percentage of living cells ([2]; MCF7, at a concentration of 80 μM): over 60%
- percentage of living cells ([7]; PC3, at a concentration of 80 μM): over 60%

Compound: [Cl][Pd-2]12[S+]=P(c3ccccc3)(c3ccccc3)Oc3cccc([c]31)-c1sc3ccccc3[n+]12 (centres unmarked) [VI (X = O), reference compound]
- IC50 [1]: 10.3 ± 0.8 µM
- IC50 [2]: 17 ± 0.5 µM
- IC50 [3]: 1.7 ± 0.3 µM
- IC50 [4]: 3.4 ± 0.5 µM
- IC50 [5]: 13 ± 0.5 µM
- IC50 [6]: 9.4 ± 0.9 µM
- IC50 [7]: 6.6 ± 0.6 µM
- IC50 [8]: 2.5 ± 0.4 µM
- IC50 [10]: 28.6 ± 3.8 µM
- IC50 [11]: 1.9 ± 0.3 µM
